According to patent publication EP3201178B1 (University of Hertfordshire Higher Education Corporation, priority 2014, dated 2016):

Key:
[1] = molecular target: dopamine D2 receptors (Homo sapiens, UniProt P14416); assay: binding affinity for the D2 DA receptor; conditions: for affinity for dopamine D2 receptors: result in words
[2] = tested on: SH-SY5Y cells; conditions: Tovilovic et al., 2012; cited from earlier work
[3] = tested on: rat primary ventral mesencephalic neurones; assay: MTT viability assay, lactacystin cytotoxicity on primary ventral mesencephalic neurones; type: cell-based; conditions: lactacystin 5µM, rat ventral mesencephalic cells in culture
Description: (§1) • Figure 1 illustrates Scheme 1, the synthetic route and chemical structures N-{4-[2-(4-aryl-piperazin-1-yl)-ethyl]-phenyl}-arylsulphonamides, N-{3-[2-(4-aryl-piperazin-1-yl)-ethyl]-phenyl}-arylsulphonamides and N-{2-[2-(4-aryl-piperazin-1-yl)-ethyl]-phenyl}-arylsulphonamides; • Figure 2 illustrates Scheme 2 the synthetic route and chemical structures of the N-{4-[2-(4-aryl-piperazin-1-yl)-methyl]-phenyl}-arylsulphonamides, N-{3-[2-(4-aryl-piperazin-1-yl)-methyl]-phenyl}-arylsulphonamides and N-{2-[2-(4-aryl-piperazin-1-yl)-methyl]-phenyl}-arylsulphonamides; • Figure 3 illustrates Table 1 illustrating the chemical structure and binding affinity of the some new arylpiperazine-sulphonamides for the D2 DA and 5-HT1A receptors; • Figure 4 illustrates the effect of compounds 1 and 2 on motor clinical scores; • Figure 5 illustrates the viability of rat ventral mesencephalic cells in culture following administration of proteasomal inhibitor lactacystin (5µM) using MTT assay. Compound 4h (4207) and 4f (4295) are protective against the effect of lactacystin in this model; and • Figure 6 illustrates the viability of ventral mesencephalic neurones using calcein AM assay.

[4] = tested on: ventral mesencephalic neurones; assay: calcein AM fluorescence viability assay against lactacystin; type: cell-based, rat; conditions: 5 µM lactacystin; for protection against lactacystin in calcein AM fluorescence assay: compound concentrations 0.1 to 1 µM; for neuroprotection against lactacystin in calcein AM fluorescence assay at higher concentrations: compound concentrations 10 to 100 µM; for viability of ventral mesencephalic neurones, calcein AM assay (Figure 6 legend): low to medium concentrations of compound
Description: as §1

[5] = molecular target: T1, 5-HT1a receptors (Homo sapiens, UniProt P08908); assay: binding affinity for the 5-HT1A receptor
T1 sequence (P08908 1-422): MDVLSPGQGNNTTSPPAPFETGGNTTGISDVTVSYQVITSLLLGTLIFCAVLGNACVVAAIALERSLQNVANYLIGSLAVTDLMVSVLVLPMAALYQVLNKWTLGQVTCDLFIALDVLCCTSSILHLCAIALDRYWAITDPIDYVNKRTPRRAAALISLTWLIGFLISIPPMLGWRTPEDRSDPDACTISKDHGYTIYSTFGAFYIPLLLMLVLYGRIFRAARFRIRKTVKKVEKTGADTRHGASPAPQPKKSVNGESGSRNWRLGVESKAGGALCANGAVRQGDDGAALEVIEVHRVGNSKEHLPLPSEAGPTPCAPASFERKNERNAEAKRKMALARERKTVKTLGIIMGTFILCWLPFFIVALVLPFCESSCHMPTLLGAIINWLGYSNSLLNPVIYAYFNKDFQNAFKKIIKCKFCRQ

dopamine D2 receptors, sequence (P14416 whole entry): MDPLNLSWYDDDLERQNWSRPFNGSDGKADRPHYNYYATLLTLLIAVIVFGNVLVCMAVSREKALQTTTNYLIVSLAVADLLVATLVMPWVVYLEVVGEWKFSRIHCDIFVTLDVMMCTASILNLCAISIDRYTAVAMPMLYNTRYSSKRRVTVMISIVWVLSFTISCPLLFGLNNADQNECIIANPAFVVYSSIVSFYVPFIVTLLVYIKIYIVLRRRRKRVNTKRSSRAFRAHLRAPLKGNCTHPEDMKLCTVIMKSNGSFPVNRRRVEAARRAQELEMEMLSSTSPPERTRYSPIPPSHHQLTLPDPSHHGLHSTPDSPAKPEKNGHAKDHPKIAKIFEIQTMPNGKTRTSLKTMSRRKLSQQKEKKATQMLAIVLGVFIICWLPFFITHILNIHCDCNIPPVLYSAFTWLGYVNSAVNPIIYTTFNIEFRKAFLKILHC

| SMILES | affinity for dopamine D2 receptors [1] | preventing mitochondrial damage and apoptosis induced by nitric oxide (NO) [2] | protection of dopaminergic neurons against lactacystin (cell viability, MTT assay) [3] | protection against lactacystin in calcein AM fluorescence assay [4] | neuroprotection against lactacystin in calcein AM fluorescence assay at higher concentrations [4] | viability of ventral mesencephalic neurones, calcein AM assay (Figure 6 legend) [4] | protection of dopaminergic neurons against lactacystin (cell viability, MTT assay) ([3]; hydrochloride) | further results |
| --- | --- | --- | --- | --- | --- | --- | --- | --- |
| O=C(Nc1ccc(CCN2CCN(c3ccccc3)CC2)cc1)c1ccccn1 [Compound 1, N-{4-[2-(4-phenyl-piperazin-1-yl)ethyl]-phenyl}-picolinamide, reference compound] | moderate affinity | most active | – | – | – | – | – | – |
| O=C(Nc1cccc(CCN2CCN(c3ccccc3)CC2)c1)c1ccccn1 [Compound 2, N-{3-[2-(4-phenyl-piperazin-1-yl)ethyl]-phenyl}-picolinamide, reference compound] | moderate affinity | most active | – | – | – | – | – | – |
| O=S(=O)(Nc1ccc(CCN2CCN(c3ccccc3)CC2)cc1)c1ccccn1 [Compound 4f, N-{4-[2-(4-phenyl-piperazin-1-yl)-ethyl]-phenyl}-2-pyridylsulphonamide] | – | – | protective | afford protection | neuroprotection was reversed | reversed cell death | – | Ki [1]: 4.43 nM; protection of dopaminergic neurons against lactacystin (cell viability, MTT assay) ([3]; listed as 4295): markedly protected |
| Cl.O=S(=O)(Nc1cccc(CCN2CCN(c3ccccc3)CC2)c1)c1cccnc1 [Compound 4h, N-{3-[2-(4-phenyl-piperazin-1-yl)-ethyl]-phenyl}-3-pyridylsulphonamide hydrochloride] | little or no affinity | – | – | afford protection | neuroprotection was reversed | reversed cell death | protective | Ki [5]: 6.88 nM; protection of dopaminergic neurons against lactacystin (cell viability, MTT assay) ([3]; listed as 4207, hydrochloride): most protection |
| Cl.O=S(=O)(Nc1cccc(CCN2CCN(c3ccccc3)CC2)c1)c1cccnc1 [Compound 4208, N-{3-[2-(4-phenyl-piperazin-1-yl)-ethyl]-phenyl}-3-pyridylsulphonamide hydrochloride] | – | – | – | – | – | – | markedly protected | – |
| O=S(=O)(Nc1cccc(CCN2CCN(c3ccccc3)CC2)c1)c1ccccn1 [Compound 4298] | – | – | markedly protected | – | – | – | – | – |
